Measurements as given in US20240228458A1, “PYRIMIDINE DERIVATIVE HAVING PROTEIN KINASE INHIBITORY ACTIVITY, AND THERAPEUTIC PHARMACEUTICAL COMPOSITION COMPRISING SAME” (THERAPEX CO., LTD., priority 2021, published 2024).

Columns and labels:
Type in all cases: cell-based
[1] = tested on: Ba/F3 cells expressing EGFR-wt; experiment: Growth inhibition (GI50) of Ba/F3 cells expressing EGFR-wt, Celltiter glo; conditions: Mus musculus, BaF3, 72 h
Procedure, shortened: (§1)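 Viability read by CellTiter-Glo after 72 h compound exposure (37 °C, 5% CO2) of variant-expressing Ba/F3 cells plated at 100,000 cells/ml. Dosing 4 h post-seeding; 10-pt 4-fold series from 2 mM stock; 0.5% DMSO. GI50 = molar concentration (μM) giving half-maximal growth inhibition.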

[2] = tested on: Ba/F3 cells expressing del19/T790M/C797S (EGFR-DTC); experiment: Growth inhibition (GI50) of Ba/F3 cells expressing del19/T790M/C797S (EGFR-DTC), Celltiter glo; conditions: Mus musculus, BaF3, 72 h
Procedure, shortened: as §1

[3] = tested on: Ba/F3 cells expressing L858R/T790M (EGFR-LT); experiment: Growth inhibition (GI50) of Ba/F3 cells expressing L858R/T790M (EGFR-LT), Celltiter glo; conditions: Mus musculus, BaF3, 72 h
Experimental: (§2) In this experimental example, a determination was made as to whether the compounds prepared in Examples 1-283 have the ability to inhibit the growth of Ba/F3 cells expressing EGFR-wt, del19/T790M/C797S (EGFR-DTC), L858R/T790M/C797S (EGFR-LTC), del19/T790M (EGFR-DT), and L858R/T790M (EGFR-LT) variants.
(§3) The parental Ba/F3 cell line is a population of cells that are not introduced with EGFR variants. Specifically, 100 μl of a cell line expressing each variant was plated in a 96-well plate at a density of 100,000 cells/ml. 10-point, 4-fold serial dilutions of each compound were prepared, starting at 2 mM. After 4 h, 0.5 μl of the compound (0.5% DMSO) was added, followed by incubation at 37° C. and 5% CO2 for 72 h. After incubation, the number of viable cells was measured using a Celltiter glo assay kit (Promega) and the GI50 of the compound was determined. The term “GI50” refers to the molar concentration (μM) of the compound required for 50% growth inhibition of cells.

[4] = tested on: Ba/F3 cells expressing del19/T790M (EGFR-DT); experiment: Growth inhibition (GI50) of Ba/F3 cells expressing del19/T790M (EGFR-DT), Celltiter glo; conditions: Mus musculus, BaF3, 72 h
Experimental: as §2, §3

parental Ba/F3 cell line = experiment: Growth inhibition (GI50) of the parental Ba/F3 cell line (not introduced with EGFR variants), Celltiter glo; conditions: Mus musculus, BaF3, 72 h, parental Ba/F3 cells
Procedure, shortened: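 Parental Ba/F3 cells (100,000 cells/ml) were treated with 10-point, 4-fold compound dilutions (0.5% DMSO; top stock 2 mM) for 72 h at 37 °C, 5% CO2. Viability was read by CellTiter-Glo; GI50 is the concentration (μM) giving 50% growth inhibition.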

[5] = tested on: Ba/F3 cells expressing L858R/T790M/C797S (EGFR-LTC); experiment: Growth inhibition (GI50) of Ba/F3 cells expressing L858R/T790M/C797S (EGFR-LTC), Celltiter glo; conditions: Mus musculus, BaF3, 72 h
Procedure, shortened: as §1

| SMILES | GI50 [1] | GI50 [2] | GI50 [3] | GI50 [4] | GI50 (parental Ba/F3 cell line) | GI50 [5] |
| --- | --- | --- | --- | --- | --- | --- |
| COc1nc(N2CCC(N3CCN(C)CC3)CC2)ccc1Nc1ncc(Cl)c(N(c2ccc3scnc3c2NS(C)(=O)=O)S(C)(=O)=O)n1 [Example 111, N-(5-chloro-2-((2-methoxy-6-(4-(4-methylpiperazin-1-yl)piperidin-1-yl)pyridin-3-yl)amino)pyrimidin-4-yl)-N-(4-(methylsulfonamido)benzo[d]thiazol-5-yl)methanesulfonamide] | 2000 to 10000 nM | 500 to 2000 nM | 2000 to 10000 nM | 500 to 2000 nM | 2000 to 10000 nM | – |
| CN1CCN(C2CCN(c3ccc(Nc4ncc(Cl)c(Nc5ccc6nccnc6c5P(C)(C)=O)n4)cc3F)CC2)CC1 [Example 125, (6-((5-chloro-2-((3-fluoro-4-(4-(4-methylpiperazin-1-yl)piperidin-1-yl)phenyl)amino)pyrimidin-4-yl)amino)quinoxalin-5-yl)dimethylphosphine oxide] | 100 to 500 nM | 25 to 100 nM | – | – | 100 to 500 nM | 100 to 500 nM |
| COc1nc(N2C[C@@H](C)N(C)[C@@H](C)C2)ccc1Nc1ncc(Cl)c(Nc2ccc3nccnc3c2P(C)(C)=O)n1 [Example 126, (6-((5-chloro-2-((2-methoxy-6-((3S,5R)-3,4,5-trimethylpiperazin-1-yl)pyridin-3-yl)amino)pyrimidin-4-yl)amino)quinoxalin-5-yl)dimethylphosphine oxide] | 2000 to 10000 nM | 100 to 500 nM | – | – | 2000 to 10000 nM | 500 to 2000 nM |
| COc1nc(N2CCC(N(C)C)C2)ccc1Nc1ncc(Cl)c(Nc2ccc3nccnc3c2P(C)(C)=O)n1 (stereo not shown) [Example 127, (6-((5-chloro-2-((6-(3-(dimethylamino)pyrrolidin-1-yl)-2-methoxypyridin-3-yl)amino)pyrimidin-4-yl)amino)quinoxalin-5-yl)dimethylphosphine oxide] | > 10000 nM | 2000 to 10000 nM | – | – | > 10000 nM | 2000 to 10000 nM |
| COc1nc(N2CCNCC2)ccc1Nc1ncc(Cl)c(Nc2ccc3nccnc3c2P(C)(C)=O)n1 [Example 128, (6-((5-chloro-2-((2-methoxy-6-(piperazin-1-yl)pyridin-3-yl)amino)pyrimidin-4-yl)amino)quinoxalin-5-yl)dimethylphosphine oxide] | 2000 to 10000 nM | 500 to 2000 nM | – | – | 2000 to 10000 nM | 500 to 2000 nM |
| COc1nc(N2CCS(=O)(=O)CC2)ccc1Nc1ncc(Cl)c(Nc2ccc3nccnc3c2P(C)(C)=O)n1 [Example 129, 4-(5-((5-chloro-4-((5-(dimethylphosphoryl)quinoxalin-6-yl)amino)pyrimidin-2-yl)amino)-6-methoxypyridin-2-yl)thiomorpholine 1,1-dioxide] | 2000 to 10000 nM | 2000 to 10000 nM | – | – | > 10000 nM | 2000 to 10000 nM |
| COc1nc(N2CCC(N3CCN(C)CC3)CC2)ccc1Nc1ncc(Cl)c(Nc2ccc3nccnc3c2NS(C)(=O)=O)n1 [Example 132, N-(6-((5-chloro-2-((2-methoxy-6-(4-(4-methylpiperazin-1-yl)piperidin-1-yl)pyridin-3-yl)amino)pyrimidin-4-yl)amino)quinoxalin-5-yl)methanesulfonamide] | 500 to 2000 nM | 100 to 500 nM | – | – | 500 to 2000 nM | 100 to 500 nM |
| COc1cc(N2CCC(N3CCN(C)CC3)CC2)ccc1Nc1ncc(Cl)c(Nc2ccc3nccnc3c2NS(C)(=O)=O)n1 [Example 133, N-(6-((5-chloro-2-((2-methoxy-4-(4-(4-methylpiperazin-1-yl)piperidin-1-yl)phenyl)amino)pyrimidin-4-yl)amino)quinoxalin-5-yl)methanesulfonamide] | 500 to 2000 nM | 100 to 500 nM | – | – | 500 to 2000 nM | 100 to 500 nM |
| COc1nc(N2C[C@@H](C)N(C)[C@@H](C)C2)ccc1Nc1ncc(Cl)c(Nc2ccc3nccnc3c2NS(C)(=O)=O)n1 [Example 135, N-(6-((5-chloro-2-((2-methoxy-6-((3S,5R)-3,4,5-trimethylpiperazin-1-yl)pyridin-3-yl)amino)pyrimidin-4-yl)amino)quinoxalin-5-yl)methanesulfonamide] | 500 to 2000 nM | 100 to 500 nM | – | – | 500 to 2000 nM | 100 to 500 nM |
| COc1cc(N2CCC(N3CCN(C)CC3)CC2)c(Cl)cc1Nc1ncc(Cl)c(Nc2ccc3nccnc3c2NS(C)(=O)=O)n1 [Example 136, N-(6-((5-chloro-2-((5-chloro-2-methoxy-4-(4-(4-methylpiperazin-1-yl)piperidin-1-yl)phenyl)amino)pyrimidin-4-yl)amino)quinoxalin-5-yl)methanesulfonamide] | 500 to 2000 nM | 100 to 500 nM | – | – | 500 to 2000 nM | 100 to 500 nM |
| COc1cc(N2CCC(N3CCN(C)CC3)CC2)c(Cl)cc1Nc1ncc(Cl)c(Nc2cc(C(F)(F)F)ccc2NS(C)(=O)=O)n1 [Example 137, N-(2-((5-chloro-2-((5-chloro-2-methoxy-4-(4-(4-methylpiperazin-1-yl)piperidin-1-yl)phenyl)amino)pyrimidin-4-yl)amino)-4-(trifluoromethyl)phenyl)methanesulfonamide] | 500 to 2000 nM | 100 to 500 nM | – | – | 2000 to 10000 nM | 100 to 500 nM |
| COc1cc(N2CCC(N3CCN(C)CC3)CC2)c(C)cc1Nc1ncc(Cl)c(Nc2cc(C(F)(F)F)ccc2NS(C)(=O)=O)n1 [Example 138, N-(2-((5-chloro-2-((2-methoxy-5-methyl-4-(4-(4-methylpiperazin-1-yl)piperidin-1-yl)phenyl)amino)pyrimidin-4-yl)amino)-4-(trifluoromethyl)phenyl)methanesulfonamide] | 2000 to 10000 nM | 100 to 500 nM | – | – | 500 to 2000 nM | 100 to 500 nM |
| COc1cc(N2CCC(N3CCN(C4CC4)CC3)CC2)c(C)cc1Nc1ncc(Cl)c(Nc2cc(C(F)(F)F)ccc2NS(C)(=O)=O)n1 [Example 139, N-(2-((5-chloro-2-((4-(4-(4-cyclopropylpiperazin-1-yl)piperidin-1-yl)-2-methoxy-5-methylphenyl)amino)pyrimidin-4-yl)amino)-4-(trifluoromethyl)phenyl)methanesulfonamide] | 2000 to 10000 nM | 500 to 2000 nM | – | – | 500 to 2000 nM | 500 to 2000 nM |
| COc1cc(N2CCC(N3CCN(C)CC3)CC2)c(C)cc1Nc1nc(N)c(Cl)c(Nc2ccc(F)cc2NS(C)(=O)=O)n1 [Example 141, N-(2-((6-amino-5-chloro-2-((2-methoxy-5-methyl-4-(4-(4-methylpiperazin-1-yl)piperidin-1-yl)phenyl)amino)pyrimidin-4-yl)amino)-5-fluorophenyl)methanesulfonamide] | 500 to 2000 nM | 500 to 2000 nM | – | – | > 10000 nM | 500 to 2000 nM |
| COc1nc(C2CCCN(C)CC2)ccc1Nc1ncc(Br)c(Nc2ccc(F)cc2NS(C)(=O)=O)n1 (stereo not shown) [Example 145, N-(2-((5-bromo-2-((2-methoxy-6-(1-methylazepan-4-yl)pyridin-3-yl)amino)pyrimidin-4-yl)amino)-5-fluorophenyl)methanesulfonamide] | 2000 to 10000 nM | 100 to 500 nM | – | – | 2000 to 10000 nM | 100 to 500 nM |
| COc1cc(N2CCC(N3CCN(C)CC3)CC2)c(F)cc1Nc1ncc(Br)c(Nc2ccc(F)cc2NS(C)(=O)=O)n1 [Example 146, N-(2-((5-bromo-2-((5-fluoro-2-methoxy-4-(4-(4-methylpiperazin-1-yl)piperidin-1-yl)phenyl)amino)pyrimidin-4-yl)amino)-5-fluorophenyl)methanesulfonamide] | 500 to 2000 nM | 100 to 500 nM | – | – | 2000 to 10000 nM | 100 to 500 nM |
| COc1cc(N2CCC(N3CCN(C)CC3)CC2)c(C)cc1Nc1ncc(Cl)c(Nc2cc(Cl)ccc2-c2c[nH]nn2)n1 [Example 166] | 100 to 500 nM | 1 to 25 nM | – | – | 500 to 2000 nM | 1 to 25 nM |
| Cc1cc(Nc2ncc(Cl)c(Nc3cc(Cl)ccc3-c3cnn[nH]3)n2)c(Cl)cc1N1CCC(N2CCN(C)CC2)CC1 [Example 185] | 500 to 2000 nM | 500 to 2000 nM | – | – | 500 to 2000 nM | 25 to 100 nM |
| COc1cc(N2CCC(N3CCN(C)CC3)CC2)c(Cl)cc1Nc1ncc(Cl)c(Nc2cc(Cl)ccc2-c2cnn[nH]2)n1 [Example 186] | 25 to 100 nM | 25 to 100 nM | – | – | 100 to 500 nM | 25 to 100 nM |
| COc1cc(N2CCC(N3CCN(C)CC3)CC2)c(C)cc1Nc1ncc(Br)c(Nc2cc(Cl)ccc2-c2cnn[nH]2)n1 [Example 187] | 100 to 500 nM | 25 to 100 nM | – | – | 500 to 2000 nM | 25 to 100 nM |
| COc1cc(N2CCC(N3CCN(C)CC3)CC2)c(Cl)cc1Nc1ncc(Br)c(Nc2cc(Cl)ccc2-c2cnn[nH]2)n1 [Example 195] | 100 to 500 nM | 25 to 100 nM | – | – | 100 to 500 nM | 25 to 100 nM |
